# In ChEMBL document CHEMBL4507312 (2021):
# Experiments:
# [1] = biological target: T1, Sigma intracellular receptor 2 (Homo sapiens, UniProt Q5BJF2); assay: GPCRScan assay: inhibition of Sigma 2; set-up: radioligand conc. used [nm] 5.0, parental cells HEKT
# [2] = biological target: 5-hydroxytryptamine receptor 1A (Homo sapiens) (UniProt P08908); conditions: Compound concentration 10.0 uM
# [3] = biological target: 5-hydroxytryptamine receptor 1B (Homo sapiens) (UniProt P28222); conditions: Compound concentration 10.0 uM
# [4] = biological target: 5-hydroxytryptamine receptor 2A (Homo sapiens) (UniProt P28223); conditions: Compound concentration 10.0 uM
# [5] = biological target: 5-hydroxytryptamine receptor 2B (Homo sapiens) (UniProt P41595); conditions: Compound concentration 10.0 uM
# [6] = biological target: 5-hydroxytryptamine receptor 2C (Homo sapiens) (UniProt P28335); conditions: Compound concentration 10.0 uM
# [7] = biological target: 5-hydroxytryptamine receptor 3A (Homo sapiens) (UniProt P46098); conditions: Compound concentration 10.0 uM
# [8] = biological target: 5-hydroxytryptamine receptor 5A (Homo sapiens) (UniProt P47898); conditions: Compound concentration 10.0 uM
# [9] = biological target: 5-hydroxytryptamine receptor 6 (Homo sapiens) (UniProt P50406); conditions: Compound concentration 10.0 uM
# [10] = biological target: 5-hydroxytryptamine receptor 7 (Homo sapiens) (UniProt P34969); conditions: Compound concentration 10.0 uM
# [11] = biological target: D(4) dopamine receptor (Homo sapiens) (UniProt P21917); conditions: Compound concentration 10.0 uM
# [12] = biological target: D(1B) dopamine receptor (Homo sapiens) (UniProt P21918); conditions: Compound concentration 10.0 uM
# [13] = biological target: Sodium-dependent serotonin transporter (Homo sapiens) (UniProt P31645); conditions: Compound concentration 10.0 uM
# [14] = biological target: Sodium-dependent noradrenaline transporter (Homo sapiens) (UniProt P23975); conditions: Compound concentration 10.0 uM
# [15] = biological target: Sodium-dependent dopamine transporter (Homo sapiens) (UniProt Q01959); conditions: Compound concentration 10.0 uM
# [16] = biological target: Mu-type opioid receptor (Homo sapiens) (UniProt P35372); conditions: Compound concentration 10.0 uM
# [17] = biological target: Delta-type opioid receptor (Homo sapiens) (UniProt P41143); conditions: Compound concentration 10.0 uM
# [18] = biological target: Kappa-type opioid receptor (Homo sapiens) (UniProt P41145); conditions: Compound concentration 10.0 uM
# [19] = biological target: Histamine H1 receptor (Homo sapiens) (UniProt P35367); conditions: Compound concentration 10.0 uM
# [20] = biological target: Histamine H4 receptor (Homo sapiens) (UniProt Q9H3N8); conditions: Compound concentration 10.0 uM
# [21] = biological target: Alpha-1A adrenergic receptor (Homo sapiens) (UniProt P35348); conditions: Compound concentration 10.0 uM
# [22] = biological target: Alpha-1B adrenergic receptor (Homo sapiens) (UniProt P35368); conditions: Compound concentration 10.0 uM
# [23] = biological target: Alpha-2A adrenergic receptor (Homo sapiens) (UniProt P08913); conditions: Compound concentration 10.0 uM
# [24] = biological target: Alpha-2B adrenergic receptor (Homo sapiens) (UniProt P18089); conditions: Compound concentration 10.0 uM
# [25] = biological target: Alpha-2C adrenergic receptor (Homo sapiens) (UniProt P18825); conditions: Compound concentration 10.0 uM
# [26] = biological target: Beta-1 adrenergic receptor (Homo sapiens) (UniProt P08588); conditions: Compound concentration 10.0 uM
# [27] = biological target: Beta-2 adrenergic receptor (Homo sapiens) (UniProt P07550); conditions: Compound concentration 10.0 uM
# [28] = biological target: Muscarinic acetylcholine receptor M1 (Homo sapiens) (UniProt P11229); conditions: Compound concentration 10.0 uM
# [29] = biological target: Muscarinic acetylcholine receptor M2 (Homo sapiens) (UniProt P08172); conditions: Compound concentration 10.0 uM
# [30] = biological target: Muscarinic acetylcholine receptor M3 (Homo sapiens) (UniProt P20309); conditions: Compound concentration 10.0 uM
# [31] = biological target: Muscarinic acetylcholine receptor M4 (Homo sapiens) (UniProt P08173); conditions: Compound concentration 10.0 uM
# [32] = biological target: Muscarinic acetylcholine receptor M5 (Homo sapiens) (UniProt P08912); conditions: Compound concentration 10.0 uM
# [33] = biological target: Beta-3 adrenergic receptor (Homo sapiens) (UniProt P13945); conditions: Compound concentration 10.0 uM
# [34] = species: Rattus norvegicus; conditions: Compound concentration 10.0 uM
# [35] = biological target: Alpha-1D adrenergic receptor (Homo sapiens) (UniProt P25100); conditions: Compound concentration 10.0 uM
# [36] = biological target: T1, Sigma intracellular receptor 2; conditions: Compound concentration 10.0 uM
# T1 sequence (Q5BJF2 whole entry): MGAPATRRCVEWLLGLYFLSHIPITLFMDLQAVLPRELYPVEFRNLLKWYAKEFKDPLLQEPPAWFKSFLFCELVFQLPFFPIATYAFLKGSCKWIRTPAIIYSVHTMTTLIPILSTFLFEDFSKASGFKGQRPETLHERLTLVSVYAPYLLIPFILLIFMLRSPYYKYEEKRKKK
# Sequence of 5-hydroxytryptamine receptor 6 (Homo sapiens) (P50406 whole entry): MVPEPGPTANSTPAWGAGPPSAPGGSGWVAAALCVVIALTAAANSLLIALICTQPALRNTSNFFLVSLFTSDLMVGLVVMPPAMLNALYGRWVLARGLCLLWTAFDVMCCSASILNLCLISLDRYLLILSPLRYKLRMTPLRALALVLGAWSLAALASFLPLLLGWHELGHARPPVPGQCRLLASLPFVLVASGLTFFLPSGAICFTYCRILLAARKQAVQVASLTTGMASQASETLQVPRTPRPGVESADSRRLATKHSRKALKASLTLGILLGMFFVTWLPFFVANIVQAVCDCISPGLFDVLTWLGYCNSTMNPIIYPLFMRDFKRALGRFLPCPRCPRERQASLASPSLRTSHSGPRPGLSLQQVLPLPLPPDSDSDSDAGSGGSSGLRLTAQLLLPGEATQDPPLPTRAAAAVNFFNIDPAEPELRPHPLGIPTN
# Sequence of D(1B) dopamine receptor (Homo sapiens) (P21918 whole entry): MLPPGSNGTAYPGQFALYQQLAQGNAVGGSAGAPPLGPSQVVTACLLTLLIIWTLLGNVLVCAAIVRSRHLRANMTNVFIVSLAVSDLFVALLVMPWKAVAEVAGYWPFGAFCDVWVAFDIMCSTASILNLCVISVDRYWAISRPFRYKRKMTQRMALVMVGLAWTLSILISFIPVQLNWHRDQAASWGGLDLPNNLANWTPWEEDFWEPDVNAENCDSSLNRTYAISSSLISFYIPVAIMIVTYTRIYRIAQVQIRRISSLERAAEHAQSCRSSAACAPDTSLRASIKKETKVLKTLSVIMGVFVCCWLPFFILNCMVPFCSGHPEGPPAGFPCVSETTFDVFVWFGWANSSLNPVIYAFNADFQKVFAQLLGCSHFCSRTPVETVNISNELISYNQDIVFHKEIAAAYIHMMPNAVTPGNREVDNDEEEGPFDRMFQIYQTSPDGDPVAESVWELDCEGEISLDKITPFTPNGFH
# Sequence of Alpha-1D adrenergic receptor (Homo sapiens) (P25100 whole entry): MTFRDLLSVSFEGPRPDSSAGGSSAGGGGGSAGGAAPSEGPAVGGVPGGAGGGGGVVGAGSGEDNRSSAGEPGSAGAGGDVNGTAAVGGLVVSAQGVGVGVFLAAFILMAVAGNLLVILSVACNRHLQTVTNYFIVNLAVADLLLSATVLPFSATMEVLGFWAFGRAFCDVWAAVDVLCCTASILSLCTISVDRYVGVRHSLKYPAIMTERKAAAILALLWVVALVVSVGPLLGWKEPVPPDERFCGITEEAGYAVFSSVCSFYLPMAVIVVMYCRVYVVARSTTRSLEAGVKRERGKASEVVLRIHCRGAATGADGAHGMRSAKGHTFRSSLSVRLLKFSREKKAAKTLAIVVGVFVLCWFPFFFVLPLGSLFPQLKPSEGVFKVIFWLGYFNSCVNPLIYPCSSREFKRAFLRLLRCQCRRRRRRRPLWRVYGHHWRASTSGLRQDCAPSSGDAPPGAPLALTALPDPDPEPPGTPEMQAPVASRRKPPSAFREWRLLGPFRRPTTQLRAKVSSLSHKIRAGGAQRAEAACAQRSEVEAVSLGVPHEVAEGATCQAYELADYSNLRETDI
# Sequence of Muscarinic acetylcholine receptor M4 (Homo sapiens) (P08173 whole entry): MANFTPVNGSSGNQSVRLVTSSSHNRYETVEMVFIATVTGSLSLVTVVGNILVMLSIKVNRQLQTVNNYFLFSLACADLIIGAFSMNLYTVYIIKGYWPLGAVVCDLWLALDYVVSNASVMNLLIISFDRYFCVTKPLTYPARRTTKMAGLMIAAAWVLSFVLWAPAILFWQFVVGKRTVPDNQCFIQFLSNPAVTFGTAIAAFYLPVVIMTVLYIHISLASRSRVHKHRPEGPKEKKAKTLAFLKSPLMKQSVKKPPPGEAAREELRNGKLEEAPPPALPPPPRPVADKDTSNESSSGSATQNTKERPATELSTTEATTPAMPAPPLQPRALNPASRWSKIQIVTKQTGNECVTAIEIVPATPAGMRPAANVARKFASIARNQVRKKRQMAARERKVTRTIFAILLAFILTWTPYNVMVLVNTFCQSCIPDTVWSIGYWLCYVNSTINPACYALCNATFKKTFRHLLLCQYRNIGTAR
# Sequence of 5-hydroxytryptamine receptor 2A (Homo sapiens) (P28223 whole entry): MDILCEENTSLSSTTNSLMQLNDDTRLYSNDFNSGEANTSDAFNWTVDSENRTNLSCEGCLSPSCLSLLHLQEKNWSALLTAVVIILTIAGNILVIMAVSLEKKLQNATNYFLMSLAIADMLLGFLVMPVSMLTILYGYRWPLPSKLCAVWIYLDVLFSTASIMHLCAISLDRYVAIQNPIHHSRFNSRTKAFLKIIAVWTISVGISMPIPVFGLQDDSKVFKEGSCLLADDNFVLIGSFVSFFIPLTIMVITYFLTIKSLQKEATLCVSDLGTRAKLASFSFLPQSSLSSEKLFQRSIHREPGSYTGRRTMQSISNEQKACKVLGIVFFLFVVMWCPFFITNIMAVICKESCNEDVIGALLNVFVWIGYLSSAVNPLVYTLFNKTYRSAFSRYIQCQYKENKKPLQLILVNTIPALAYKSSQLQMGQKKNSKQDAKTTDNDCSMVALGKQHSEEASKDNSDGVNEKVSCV
# Sequence of Alpha-1B adrenergic receptor (Homo sapiens) (P35368 whole entry): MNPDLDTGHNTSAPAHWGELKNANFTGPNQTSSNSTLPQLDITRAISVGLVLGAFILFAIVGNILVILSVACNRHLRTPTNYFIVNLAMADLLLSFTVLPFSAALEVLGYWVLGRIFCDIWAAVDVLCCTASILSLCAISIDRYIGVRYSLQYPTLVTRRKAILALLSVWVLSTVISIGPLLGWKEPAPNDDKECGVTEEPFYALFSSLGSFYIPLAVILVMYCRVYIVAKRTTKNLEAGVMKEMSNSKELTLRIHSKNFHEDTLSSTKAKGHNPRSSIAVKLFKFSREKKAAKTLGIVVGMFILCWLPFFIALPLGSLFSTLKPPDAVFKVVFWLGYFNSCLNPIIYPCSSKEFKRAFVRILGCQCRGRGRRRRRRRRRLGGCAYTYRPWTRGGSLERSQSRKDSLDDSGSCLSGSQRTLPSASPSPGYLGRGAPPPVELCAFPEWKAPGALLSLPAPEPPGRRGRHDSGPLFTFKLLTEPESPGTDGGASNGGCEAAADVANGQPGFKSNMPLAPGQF
# Sequence of Muscarinic acetylcholine receptor M3 (Homo sapiens) (P20309 whole entry, looked up): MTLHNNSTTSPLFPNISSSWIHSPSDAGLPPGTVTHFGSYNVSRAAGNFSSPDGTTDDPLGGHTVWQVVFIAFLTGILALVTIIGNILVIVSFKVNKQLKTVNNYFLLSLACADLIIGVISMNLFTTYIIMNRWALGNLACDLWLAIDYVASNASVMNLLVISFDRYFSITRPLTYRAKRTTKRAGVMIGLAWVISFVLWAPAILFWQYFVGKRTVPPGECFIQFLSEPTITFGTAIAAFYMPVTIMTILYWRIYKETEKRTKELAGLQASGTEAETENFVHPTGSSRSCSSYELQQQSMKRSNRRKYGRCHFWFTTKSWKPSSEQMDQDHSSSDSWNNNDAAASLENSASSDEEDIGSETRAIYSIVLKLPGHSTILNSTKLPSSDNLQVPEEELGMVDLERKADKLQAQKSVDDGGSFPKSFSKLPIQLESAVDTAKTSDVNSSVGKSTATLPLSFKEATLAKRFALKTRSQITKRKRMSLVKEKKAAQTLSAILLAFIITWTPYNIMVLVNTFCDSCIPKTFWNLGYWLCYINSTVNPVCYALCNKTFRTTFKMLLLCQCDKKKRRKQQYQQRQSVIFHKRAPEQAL
# Sequence of 5-hydroxytryptamine receptor 2B (Homo sapiens) (P41595 whole entry): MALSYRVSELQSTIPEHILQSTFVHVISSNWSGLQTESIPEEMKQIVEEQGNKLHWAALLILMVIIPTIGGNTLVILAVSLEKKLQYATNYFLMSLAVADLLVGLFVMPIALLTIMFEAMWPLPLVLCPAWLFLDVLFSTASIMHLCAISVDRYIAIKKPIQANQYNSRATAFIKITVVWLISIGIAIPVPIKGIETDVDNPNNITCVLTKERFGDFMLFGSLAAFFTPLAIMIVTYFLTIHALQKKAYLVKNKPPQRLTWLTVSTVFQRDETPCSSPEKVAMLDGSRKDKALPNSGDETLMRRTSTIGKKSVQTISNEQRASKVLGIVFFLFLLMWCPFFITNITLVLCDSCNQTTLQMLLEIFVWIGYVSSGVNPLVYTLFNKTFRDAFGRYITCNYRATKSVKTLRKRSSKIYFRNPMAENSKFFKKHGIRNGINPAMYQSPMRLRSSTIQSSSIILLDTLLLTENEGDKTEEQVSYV
# Sequence of Sodium-dependent noradrenaline transporter (Homo sapiens) (P23975 whole entry): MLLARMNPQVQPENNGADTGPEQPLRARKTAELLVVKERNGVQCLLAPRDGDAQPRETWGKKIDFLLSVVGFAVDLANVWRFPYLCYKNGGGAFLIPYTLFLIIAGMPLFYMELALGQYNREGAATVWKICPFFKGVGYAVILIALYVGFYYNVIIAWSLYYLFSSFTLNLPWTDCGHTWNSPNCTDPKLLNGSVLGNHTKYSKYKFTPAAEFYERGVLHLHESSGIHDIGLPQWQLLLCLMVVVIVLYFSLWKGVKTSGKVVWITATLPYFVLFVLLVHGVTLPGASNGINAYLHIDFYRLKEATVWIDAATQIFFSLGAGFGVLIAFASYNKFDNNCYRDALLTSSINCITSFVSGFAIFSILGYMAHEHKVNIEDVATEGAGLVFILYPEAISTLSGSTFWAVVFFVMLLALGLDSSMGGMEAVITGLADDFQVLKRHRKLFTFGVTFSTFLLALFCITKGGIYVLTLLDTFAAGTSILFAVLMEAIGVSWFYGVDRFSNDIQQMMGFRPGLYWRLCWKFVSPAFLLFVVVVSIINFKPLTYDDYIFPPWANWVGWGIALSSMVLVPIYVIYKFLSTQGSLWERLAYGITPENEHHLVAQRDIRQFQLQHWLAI
smiles,measurement,setting,value
Cc1c(Oc2ccc(F)cc2)c(OC(C)C)nn1-c1ccc(C2CC2)cn1 [IPP/CNRS-A019],Ki,[1]; read-out: Ki,5.25 µM
same,Ki,[1]; read-out: pKi (converted),4.47 µM
same,inhibition,[2],0.45%
same,inhibition,[3],-6.09%
same,inhibition,[4],-7.39%
same,inhibition,[5],22.8%
same,inhibition,[6],-1.77%
same,inhibition,[7],11.7%
same,inhibition,[8],-6.43%
same,inhibition,[9],9.36%
same,inhibition,[10],15.8%
same,inhibition,[11],-4.56%
same,inhibition,[12],-2.37%
same,inhibition,[13],-0.39%
same,inhibition,[14],0.15%
same,inhibition,[15],-6.74%
same,inhibition,[16],-1.35%
same,inhibition,[17],1.01%
same,inhibition,[18],-0.09%
same,inhibition,[19],21.2%
same,inhibition,[20],-0.91%
same,inhibition,[21],-2.65%
same,inhibition,[22],-4.23%
same,inhibition,[23],7.06%
same,inhibition,[24],13.3%
same,inhibition,[25],8.56%
same,inhibition,[26],23.9%
same,inhibition,[27],17%
same,inhibition,[28],5.35%
same,inhibition,[29],16.2%
same,inhibition,[30],-6.6%
same,inhibition,[31],10.3%
same,inhibition,[32],4.72%
same,inhibition,[33],17.6%
same,inhibition,[34],-2.86%
same,inhibition,[35],-0.81%
same,inhibition,[36],64.9%
